Target: T1, tankyrase 2 (TNKS2) (Homo sapiens, UniProt Q9H2K2)
T1 construct: His6-tankyrase 2 (construct: 934-1166) (His6-TNKS2)
Test: μHTS-TNKS-IWR2 TR-FRET Binding Assay (Example 118), His6-TNKS2 substituted
Settings: procedure in Example 118 with His6-TNKS2
Description: (§1) μHTS-TNKS-IWR2 TR-FRET Binding Assay (10 μL/well in BD1536-well plate, a single point)
(§2) Reagents and Stock Solutions
Tankyrase 1 (TNKS1): 184.3 μM=5.2 mg/mL His6-TNKS1, MW=28.2 KDa (construct: 1088-1327, 1266M) in 20 mM Tris pH 8, 150 mM NaCl, 10% glycerol, and 0.5 mM TCEP. Alternatively, His6-tankyrase 2 (construct: 934-1166) (His6-TNKS2) or His6-PARP1 (full length) can be substituted for His6-TNKS 1.
(§3) Biotin-4-((1S,2R,6S,7R)-3,5-Dioxo-4-aza-tricyclo[5.2.1.0*2,6]dec-8-en-4-yl)-N-(4-methyl-quinolin-8-yl)-benzamide (Biotin-IWR2): 10 mM Biotin-IWR2 stock in DMSO, stored at −20° C.
Positive control: 10 mM 2-(4-Trifluoromethyl-phenyl)-3,5,7,8-tetrahydro-thiopyrano[4,3-d]pyrimidin-4-one (XAV939) in DMSO, stored at −20° C.
APC-anti-His Ab: 8.50 μM SL-APC, 8.26 μM anti-6His antibody-SureLight APC (Columia Bioscience, Catalog Number D3-1711, Lot Number N01010-AAH04)
Assay plate: BD 1536-well, clear/black plate (Catalog Number 353255)
(§4) Assay buffer 1a (AB1a) for TNKS dilution: 50 mM Tris, pH 7.4, 100 mM sodium chloride solution, 1 mM magnesium chloride solution, 1 mM DL-dithiothreitol solution, 0.2 mg/mL bovine serum albumin solution, 0.025% NP-40.
(§5) Assay buffer 1b (AB1b) for Biotin-IWR2 dilution: 50 mM Tris, pH 7.4, 100 mM sodium chloride solution, 1 mM magnesium chloride solution, 1 mM DL-dithiothreitol solution, 0.2 mg/mL bovine serum albumin solution, 0.05% NP-40
(§6) Assay buffer 1c (AB1c) for compound dilution: 50 mM Tris, pH 7.4, 100 mM sodium chloride solution, 1 mM magnesium chloride solution, 1 mM DL-dithiothreitol solution, 0.2 mg/mL bovine serum albumin solution
(§7) Assay buffer 2 (AB2) for Eu/APC: 50 mM Tris, pH 7.4, 100 mM sodium chloride solution, 1 mM magnesium chloride solution, 0.2 mg/mL bovine serum albumin solution
(§8) Reagent Stock Solution Preparation
Prepare Biotinylated IWR2 stock solution (3.33× stock) for TOTL and compound wells: 200 nM Biotin-IWR2 in 5% DMSO/AB1b buffer
(§9) Prepare BLANK well stock solution: 5% DMSO/AB1b buffer
Prepare POSITIVE CONTROL well stock solution (3.33× stock): 200 nM XAV939 in 200 nM Biotin-IWR2/5% DMSO/AB1b buffer
(§10) Prepare TNKS 1 stock solution (5× stock): 300 nM TNKS in AB1a buffer. (Alternatively, use TNKS2 or PARP1 stock solutions.)
Prepare Eu/APC stock solution (5× stock): 3.5 nM Eu-SA/50 nM APC-His6Ab in AB2 buffer.
Add 25 μL/well 1.5% DMSO/AB1c buffer in each compound well to the compound concentration at 74 μM in 8.8% DMSO/AB1c buffer or in the 2 μL DMSO CONTROL wells (BLANK, TOTAL and POSITIVE wells) in the compound plate. Transfer 3 μL/well of above solution (solution 1,2,3) to an empty assay plate (BD1536-well plate) as follows: • TOTAL and cpd wells: Solution 1 (Biotin-IWR2): • BLANK wells: Solution 2 (No Biotin-IWR2): • POSITIVE CONTROL wells: Solution 3 (Biotin-IWR2+XAV939)
(§11) Transfer 3 μL/well of the above diluted compound solutions or compound dilution buffer to the above assay plate. Add 2 μL/well of 300 nM TNKS stock solution (4) to every well in the above assay plate. Centrifuge the assay plate at 2100 rpm for 2 min. Incubate the assay plate at 26° C. for 30 minutes. Add 2 μL/well 3.5 nMEu/50 nM APC solution (5) to every well in the above assay plate. Centrifuge the assay plate at 2100 rpm for 2 min. Incubate the assay plate at 26° C. for 60 min. Read the assay plate immediately at excitation wavelength of 330 nm and emission wavelength of 615 and 665 nM in time resolved fluorescence mode.
XAV939 (+ve control): 60 nM at ˜70% Inhibition
General Library compounds: 22.23 μM in 4% DMSO

T1 sequence (Q9H2K2 934-1166): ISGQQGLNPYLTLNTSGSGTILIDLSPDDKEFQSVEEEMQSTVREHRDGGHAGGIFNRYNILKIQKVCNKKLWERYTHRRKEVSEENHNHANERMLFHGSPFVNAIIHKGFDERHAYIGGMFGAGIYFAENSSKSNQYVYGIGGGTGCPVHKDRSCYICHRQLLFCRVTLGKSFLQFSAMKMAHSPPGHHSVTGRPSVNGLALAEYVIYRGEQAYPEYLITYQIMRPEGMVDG

IC50	Molecule
34.5 nM	Cn1ncc2c(=O)[nH]c(-c3ccc(C(F)(F)F)cc3)nc21 [Compound I-4, 1-methyl-6-[4-(trifluoromethyl)phenyl]-5H-pyrazolo[3 4-d]pyrimidin-4-one]
135 nM	CCOC(=O)c1ccc(N2CCN(c3nc4c(cnn4C)c(=O)[nH]3)CC2)cc1 [Compound I-41, ethyl 4-[4-(1-methyl-4-oxo-5H-pyrazolo[3 4-d]pyrimidin-6-yl)piperazin-1-yl]benzoate]
43.2 nM	Cn1ncc2c(=O)[nH]c(N3CCN(c4ncccc4C(F)(F)F)CC3)nc21 [Compound I-20, 1-methyl-6-[4-[3-(trifluoromethyl)-2-pyridyl]piperazin-1-yl]-5H-pyrazolo[3 4-d]pyrimidin-4-one]
47.1 nM	COCCOc1cc(F)c(F)c(N2CCN(c3nc4c(cnn4C)c(=O)[nH]3)CC2)c1 [Compound I-58]

Target: T2, Tankyrase 1 (TNKS1) (Homo sapiens, UniProt O95271)
T2 construct: His6-TNKS1, MW=28.2 KDa (construct: 1088-1327, 1266M)
Test: μHTS-TNKS-IWR2 TR-FRET Binding Assay (Example 118), His6-TNKS1
Settings: not given
Description: as §1, §2, §3
(XAV939) in DMSO, stored at −20° C.
as §4, §5, §6, §7, §8, §9, §10
Transfer 3 μL/well of above solution (solution 1,2,3) to an empty assay plate (BD1536-well plate) as follows: • TOTAL and cpd wells: Solution 1 (Biotin-IWR2): • BLANK wells: Solution 2 (No Biotin-IWR2): • POSITIVE CONTROL wells: Solution 3 (Biotin-IWR2+XAV939)
as §11, with “min.” for “min. Read the assay plate immediately at excitation wavelength of 330 nm and emission wavelength of 615 and 665 nM in time resolved fluorescence mode.”

T2 sequence (O95271 1088-1327): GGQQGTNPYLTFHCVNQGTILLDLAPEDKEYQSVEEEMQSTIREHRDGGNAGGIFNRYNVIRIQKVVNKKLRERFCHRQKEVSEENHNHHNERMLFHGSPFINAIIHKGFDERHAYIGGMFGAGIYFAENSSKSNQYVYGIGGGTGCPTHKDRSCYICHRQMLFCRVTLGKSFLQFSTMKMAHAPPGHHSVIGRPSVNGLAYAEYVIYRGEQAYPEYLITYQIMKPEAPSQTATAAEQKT

IC50	Molecule
25 nM	Cn1ncc2c(=O)[nH]c(-c3ccc(C(F)(F)F)cc3)nc21 [Compound I-4, 1-methyl-6-[4-(trifluoromethyl)phenyl]-5H-pyrazolo[3 4-d]pyrimidin-4-one]
107 nM	CCOC(=O)c1ccc(N2CCN(c3nc4c(cnn4C)c(=O)[nH]3)CC2)cc1 [Compound I-41, ethyl 4-[4-(1-methyl-4-oxo-5H-pyrazolo[3 4-d]pyrimidin-6-yl)piperazin-1-yl]benzoate]
31 nM	Cn1ncc2c(=O)[nH]c(N3CCN(c4ncccc4C(F)(F)F)CC3)nc21 [Compound I-20, 1-methyl-6-[4-[3-(trifluoromethyl)-2-pyridyl]piperazin-1-yl]-5H-pyrazolo[3 4-d]pyrimidin-4-one]

Test system: Wnt stimulated TCF transcriptional activity, HEK293-TS 112 TCF reporter cell line
Test: Tankyrase 1 Assay (Example 119): Wnt3A-stimulated TOPbrite TCF luciferase reporter
Assay type: cell-based
Settings: Compounds I-59 to I-144, procedure in Example 119 (0.5 ug/mL Wnt3A, 16 hours); read-out: TNKS1 (IC50)
Description: Inhibition of the Wnt stimulated TCF transcriptional activity by tankyrase inhibitors was determined utilizing a HEK293-TS 112 TCF reporter cell line. A Wnt-responsive luciferase reporter named TOPbrite was constructed by cloning the enhancer element of Super8xTOPFlash containing eight TCF/LEF binding sites into the pGL4.28 vector (Promega) upstream of the minimal promoter element, and selecting for hygromycin B resistance (50 μg/ml). Cells were seeded into 384-well plates in the presence of 0.5 ug/mL of Wnt3A at a density of 20,000 cells per well in 25 ul of F:12 DMEM media supplemented with 10% FBS and 2 mM Glutamax. Cells seeded without the addition of Wnt3A were used as background signal. Compounds of various concentrations were added to cells and incubated at 37 degrees with 5% CO2 for 16 hours. The assay was terminated with the addition of Promega Dual Glo kit per manufacturer's instructions. A ratio of TOPbrite Firefly Luciferase and SV40 Renillla Luciferase was calculated and the background from the neutral wells was subtracted yielding the final normalized measurement of TCF transcriptional activity. Compound IC50s were determined by four-parameter curve fitting using GeneData software.

Molecule	IC50
Cn1nccc1C1(C)CCN(c2nc3c(cnn3C)c(=O)[nH]2)CC1 [Compound I-96, 1-methyl-6-[4-methyl-4-(2-methylpyrazol-3-yl)-1-piperidyl)-5H-pyrazolo[3 4-d]pyrimidin-4-one]	28.4 nM
Cn1ncc2c(=O)[nH]c(N3CCN(C4CC5CCC4C5)CC3)nc21 (stereo not drawn) [Compound I-103, 1-methyl-6-(4-norbornan-2-ylpiperazin-1-yl)-5H-pyrazolo[3 4-d]pyrimidin-4-one]	50.2 nM
Cn1ncc2c(=O)[nH]c(N3CCC(S(C)(=O)=O)CC3)nc21 [Compound I-141, 1-methyl-6-(4-methylsulfonyl-1-piperidyl)-5H-pyrazolo[3 4-d]pyrimidin-4-one]	652 nM
Cn1ncc2c(=O)[nH]c(N3CCN(C4CCN(C(=O)OC(C)(C)C)CC4)CC3)nc21 [Compound I-131, tert-butyl 4-[4-(1-methyl-4-oxo-5H-pyrazolo[3 4-d]pyrimidin-6-yl)piperazin-1-yl]piperidine-1-carboxylate]	317 nM
Cn1ncc2c(=O)[nH]c(N3CCN(CC4CCOCC4)CC3)nc21 [Compound I-116, 1-methyl-6-[4-(tetrahydropyran-4-ylmethyl)piperazin-1-yl]-5H-pyrazolo[3 4-d]pyrimidin-4-one]	112 nM
Cn1ncc2c(=O)[nH]c(N3CCC(O)(c4ccc(F)cc4)CC3)nc21 [Compound I-93, 6-[4-(4-fluorophenyl)-4-hydroxy-1-piperidyl]-1-methyl-5H-pyrazolo[3 4-d]pyrimidin-4-one]	24.6 nM
Cn1ncc2c(=O)[nH]c(N3CCC(Cc4ccncc4)C3)nc21 (stereo not drawn) [Compound I-138, 1-methyl-6-[3-(4-pyridylmethyl)pyrrolidin-1-yl]-5H-pyrazolo[3 4-d]pyrimidin-4-one]	536 nM
6-[4-(3-fluorophenyl)-1- piperidyl]-1-methyl-5H- pyrazolo[3 4-d]pyrimidin- 4-one [Compound I-84]	17 nM
COCCOc1cc(F)c(N2CCN(c3nc4c(cnn4C4CCS(=O)(=O)CC4)c(=O)[nH]3)CC2)c(F)c1 [Compound I-128, 6-[4-[2 6-difluoro-4-(2-methoxyethoxy)phenyl]piperazin-1-yl]-1-(1 1-dioxothian-4-yl)-5H-pyrazolo[3 4-d]pyrimidin-4-one]	268 nM
Cn1ccc(C2(C)CCN(c3nc4c(cnn4C)c(=O)[nH]3)CC2)n1 [Compound I-90, 1-methyl-6-[4-methyl-4-(1-methylpyrazol-3-yl)-1-piperidyl]-5H-pyrazolo[3 4-d]pyrimidin-4-one]	23.6 nM
Cn1ncc2c(=O)[nH]c(N3CCN(c4c(F)cc(O)cc4F)CC3)nc21 [Compound I-73, 6-[4-(2 6-difluoro-4-hydroxy-phenyl)piperazin-1-yl]-1-methyl-5H-pyrazolo[3 4-d]pyrimidin-4-one]	8.8 nM
Cn1cc(CN2CCN(c3nc4c(cnn4C)c(=O)[nH]3)CC2)cn1 [Compound I-134, 1-methyl-6-[4-[(1-methylpyrazol-4-yl)methyl]piperazin-1-yl]-5H-pyrazolo[3 4-d]pyrimidin-4-one]	342 nM
Cn1ncc2c(=O)[nH]c(-c3ccc(S(=O)(=O)C4CCCCC4)cc3)nc21 [Compound I-125, 6-(4-cyclohexylsulfonylphenyl)-1-methyl-5H-pyrazolo[3 4-d]pyrimidin-4-one]	178 nM
COCCOc1cc(F)c(N2CCN(c3nc4c(cnn4CC(C)O)c(=O)[nH]3)CC2)c(F)c1 (stereo not drawn) [Compound I-126, 6-[4-[2 6-difluoro-4-(2-methoxyethoxy)phenyl]piperazin-1-yl]-1-(2-hydroxypropyl)-5H-pyrazolo[3 4-d]pyrimidin-4-one]	220 nM
Cn1ncc2c(=O)[nH]c(N3CCC(S(=O)(=O)CC4CCCCC4)CC3)nc21 [Compound I-135, 6-[4-(cyclohexylmethylsulfonyl)-1-piperidyl]-1-methyl-5H-pyrazolo[3 4-d]pyrimidin-4-one]	406 nM
6-[4-(2-fluorophenyl)-1- piperidyl]-1-methyl-5H- pyrazolo[3 4-d]pyrimidin- 4-one [Compound I-88]	19.3 nM
CCCn1ccc(C2(C)CCN(c3nc4c(cnn4C)c(=O)[nH]3)CC2)n1 [Compound I-98, 1-methyl-6-[4-methyl-4-(1-propylpyrazol-3-yl)-1-piperidyl]-5H-pyrazolo[3 4-d]pyrimidin-4-one]	37.4 nM

— patent US20130345215A1, “PYRAZOLOPYRIMIDONE AND PYRAZOLOPYRIDONE INHIBITORS OF TANKYRASE” (Genentech, Inc., priority 2012, published 2013)
